Experimental data: patent US5262435A, “Cholesterol lowering compounds” (Merck & Co., Inc., priority 1992, dated 1993)

Target: T1, squalene synthetase (Rattus norvegicus, UniProt Q02769)
T1 construct: from tissue; host or cells: rat liver microsomes (lovastatin-fed male Charles River CD rats)
T1 sequence (Q02769 1-416): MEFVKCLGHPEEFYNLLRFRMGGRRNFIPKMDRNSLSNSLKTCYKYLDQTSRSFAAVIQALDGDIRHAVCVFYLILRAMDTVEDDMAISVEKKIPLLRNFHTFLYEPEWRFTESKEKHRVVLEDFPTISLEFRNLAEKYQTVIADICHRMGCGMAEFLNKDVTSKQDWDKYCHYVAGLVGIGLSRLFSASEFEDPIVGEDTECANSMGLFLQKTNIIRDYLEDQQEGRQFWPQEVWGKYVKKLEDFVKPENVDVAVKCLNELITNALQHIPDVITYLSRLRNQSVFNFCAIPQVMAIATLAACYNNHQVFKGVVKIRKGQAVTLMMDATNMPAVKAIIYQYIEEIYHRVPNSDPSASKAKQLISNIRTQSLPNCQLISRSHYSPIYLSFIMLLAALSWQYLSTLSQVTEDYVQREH
Assay: Squalene synthetase assay (rat liver microsomes, [4-14C]farnesyl-pyrophosphate)
Type: biochemical
Settings: rat liver microsomal protein, 30° C., 20 minutes; read-out: IC50 squalene synthetase inhibition
Method: The intrinsic squalene synthetase inhibitory activity of representative compounds of this invention was measured by the standard in vitro protocol described below:
Male, Charles River CD rats (120 to 150 g) were fed a diet containing 0.1% lovastatin for 4 days. The livers from these rats were homogenized in 5 volumes (ml/g) of ice cold 50 Mm HEPES (4-(2-hydroxyethyl)-1-piperazine-ethanesulfonic acid), 5 mM EDTA(ethylenediaminetetraacetic acid) pH 7.5 with a Potter-Elvehjem type tissue grinder. The homogenate was centrifuged twice at 20,000×g for 15 minutes at 4,C, discarding the pellet each time. The supernatant was then centrifuged at 100,000×g for 1 hour at 4° C. The resulting microsomal pellet was resuspended in a volume of the above homogenizing buffer equal to one-fifth the volume of the original homogenate. This microsomal preparation has a protein concentration of about 7 mg/ml. The microsomal suspensions were stored in aliquots at -70° C. Squalene synthetase activity in these aliquots is stable for at least several months. […]
This assay mix was degassed under a vacuum and flushed with N2. […] Ten ml of scintillation fluid was added to the heptane solution and radioactivity was determined by liquid scintillation counting. […]
IC50 values were determined by plotting the log of the concentration of the test compound versus the percentage inhibition. […]

SMILES: C=C(CC[C@@]12C[C@@H](OC(=O)/C=C/C(C)CC(C)CC)[C@@](C(=O)O)(O1)[C@](O)(C(=O)O)[C@@H](C(=O)O)O2)C(OC(C)=O)C(C)Cc1ccccc1 (stereo partly shown) [Compound A]
- IC50: 0.95 nM
